According to patent JP2012067022A, “ホスホマイシンを有効成分とする魚類のエドワジエラ症治療剤” (Meiji Seika Kaisha Ltd, priority 2010, dated 2012):

Tests used:
[1] = system: Edwardsiella tarda E08-18 strain (エドワジエラ・タルダ E08−18株); test: Test Example 3: artificial infection treatment test (2) in red sea bream; assay type: in vivo; conditions: for mortality rate: red sea bream juveniles (27 g), 4.6×10^6 CFU/mL per fish i.p., to day 14 after infection, untreated control 95%
[2] = system: Edwardsiella tarda E08-18 strain (エドワジエラ・タルダ E08−18株); test: Test Example 2: artificial infection treatment test (1) in red sea bream; assay type: in vivo; conditions: 40 mg (potency)/kg oral in feed, 6 days
[3] = system: Edwardsiella tarda (エドワジエラ・タルダ); test: Test Example 1: in vitro antibacterial activity (MIC, Japanese Society of Chemotherapy method); assay type: cell-based; conditions: oxytetracycline hydrochloride-resistant strains; result in words

CN(C)[C@@H]1C(=O)C(C(N)=O)=C(O)[C@@]2(O)C(=O)C3=C(O)c4c(O)cccc4[C@@](C)(O)[C@H]3[C@H](O)[C@@H]12.Cl [塩酸オキシテトラサイクリン]
mortality rate ([1]; 50 mg (potency)/kg oral in feed, 7 days): 100%

C[C@@H]1O[C@@H]1P(=O)(O)O [ホスホマイシン・カルシウム, カルシウム塩]
mortality rate ([2]; red sea bream juveniles (29 g), 3.6×10^6 CFU/mL per fish i.p., to day 14 after infection, untreated control 95%): 10%
mortality rate ([1]; 40 mg (potency)/kg oral in feed, 6 days): 25%

C[C@@H]1O[C@@H]1P(=O)(O)O [ホスホマイシン]
antibacterial activity [3]: 強い抗菌活性を示す
recovery of feeding activity ([2]; red sea bream juveniles, after bacterial inoculation): 摂餌活性の回復が早まる
recovery of feeding activity ([1]; red sea bream juveniles, 40 mg (potency)/kg oral in feed, 6 days, compared with oxytetracycline hydrochloride and untreated groups): 塩酸オキシテトラサイクリンや無投薬の群よりも摂餌活性の回復が早まる
